# Measurements: patent US6861070B1, “Medicinal compositions for treating evacuatory insufficiency” (Yamanouchi Pharmaceutical Co., Ltd., priority 1998, dated 2005)
# Where a name gives a salt, the structure may show the parent alone.
# System: patients diagnosed to be voiding dysfunction associated with neurogenic bladder
# Test: Clinical test to patients of voiding dysfunction associated with neurogenic bladder
# Format: in vivo
# Method: Test Example 1. Clinical Test to Patients of Voiding Dysfunction Associated with Neurogenic Bladder. Clinical test was carried out under the following conditions to the causes of voiding dysfunction associated with neurogenic bladder. Patients: Sixty patients diagnosed to be voiding dysfunction associated with neurogenic bladder (excluding the cases where the cause was peripheral diseases). Used drug and method of administration: Capsule preparation containing 0.2 mg of tamsulosin hydrochloride or placebo capsule was used and two capsules were orally administered after breakfast (once daily) for four weeks. […] Approximate safety was evaluated as no problem, little problems, some problems and problems according to the presence/absence and degree of side effect, change of blood pressure and pulse rate, and abnormal change in clinical date. Impression by the patient was judged to be much improvement, improvement, some improvement, no change, some worsening, worsening and much worsening. Finally, degree of improvement as a whole, approximate safety and impression by patient were taken into consideration and the final judgement for the Usefulness wan judged to be any of the […]—very useful, useful, somewhat useful and not preferable.
# [1] = compared with placebo group, two 0.2 mg capsules orally once daily, four weeks
# [2] = share of patients (12/20), two 0.2 mg capsules orally once daily, four weeks
# [3] = two 0.2 mg capsules orally once daily after breakfast, four weeks, n = 16
# [4] = two 0.2 mg capsules orally once daily after breakfast, four weeks, n = 23
compound,measurement,setting,value
"CCOc1ccccc1OCCN[C@H](C)Cc1ccc(OC)c(S(N)(=O)=O)c1 [Tamsulosin Hydrochloride, (R)(−)-5-{2-{[2-(o-ethoxyphenoxy)ethyl}amino]propyl}-2-methoxybenzene-sulfonamide]","Approximate safety (side effect, blood pressure, pulse rate, clinical data)",[1],no significant difference
same,Impression by patient,[1],no significant difference
same,"Usefulness as a therapeutic agent (final judgement, in words)",impression by the patients further taken into consideration,useful as a therapeutic agent
same,Improvement of subjective symptom and objective observation and improvement as a whole (in words),patients suffering from voiding dysfunction associated with neurogenic bladder,significant improvement
same,"Degree of Improvement in Subjective Symptoms, ≧Medium Improvement","share of patients (10/23), two 0.2 mg capsules orally once daily, four weeks",43.5%
same,"Degree of Improvement as a Whole, ≧Medium Improvement",[2],60.0%
same,"Degree of Improvement in Objective Observation, ≧Medium Improvement",[2],80.0%
same,"Usefulness, ≧Useful","share of patients (12/23), two 0.2 mg capsules orally once daily, four weeks",52.2%
same,Average Urinary Flow (Changing Amt),[3],1.2 ± 1.66 mL/s
same,Maximum Urinary Flow (Changing Amt),[3],2.5 ± 3.01 mL/s
same,Residual Urine Rate (Changing Amt),[3],−13 ± 20.0%
same,Residual Urine Amount (Changing Amt),[4],-18 ± 80.1 mL
same,Total Score (Changing Rate) of subjective symptoms (1)-(8),[4],−31 ± 34.2%
